Values after ≈ are worked out from the molar mass of the structure shown. Where two headings read alike, the source gives them in different places.

Data set [1] can be described thus: Solubility assay (μSOL Evolution, UV). The format is physicochemical. The note with it: 18 h at RT in buffer; for solubility at 18 h: aqueous buffer, kinetic from dmso stock. On the procedure: Solubility assays were carried out on a Biomek FX lab automation workstation (Beckman Coulter, Inc., Fullerton, CA) using SOL Evolution software (pION Inc., Woburn, MA). The detailed method is described as follows. 10 μl of 10 mM compound stock (in DMSO) was added to 190 μl 1-propanol to make a reference stock plate. 5 μl from this reference stock plate were mixed with 70 μl 1-propanol and 75 μl citrate phosphate-buffered saline (PBS; isotonic) to make the reference plate, and the UV spectrum (250-500 nm) of the reference plate was read. 6 μl of 10 mM test compound stock was added to 594 μl buffer in a 96-well storage plate and mixed. The storage plate was sealed and incubated at RT for 18 h. The suspension was then filtered through a 96-well filter plate (pION Inc., Woburn, MA). 75 μl of filtrate was mixed with 75 μl 1-propanol to make the sample plate, and the UV spectrum of the sample plate was read. Calculations were carried out with μSOL Evolution software based on the area under the curve (AUC) of the UV spectrum of the sample and reference plates. All compounds were tested in triplicate.

Data set [2] can be described thus: High throughput Caco-2 permeability. The format is in vitro ADME. The note with it: human, 10 μmol/l, 2 h, 37° C. On the procedure: (§1) High throughput Caco-2 permeability was performed in the TranswellR 0.4 μm polycarbonate membrane 96-well system with modified methods. Caco-2 cells were maintained at 37° C. in a humidified incubator with an atmosphere of 5% CO2. The cells were cultured in 75 cm^2 flasks with Dulbecco's Modified Eagle's Medium (DMEM) containing 10% (v/v) FBS, 1% (v/v) non-essential amino acids (NEAA), 100 units/ml of penicillin, and 100 μg/ml of streptomycin. The Caco-2 cells were seeded onto inserts at a density of 2×10^4 cells/insert separately. The medium in the wells was exchanged each other day, and the trans epithelial electrical resistance (TEER) value was measured using an epithelial voltohm meter (Millipore, Billerica, Massachusetts). […] For transport experiments, each cultured monolayer on the 96-well plate was washed twice with a transport buffer (HBSS containing 25 mM HEPES, pH 7.4). The permeability assay was initiated by the addition of each compound solution (10 μmol/l) into inserts (apical side, A) or receivers (basolateral side, B). The Caco-2 cell monolayers were incubated for 2 h at 37° C. Fractions were collected from receivers (if apical to basal permeability) or inserts (if basal to apical permeability), and concentrations were assessed by UPLC/MS (Waters; Milford, MA). All compounds were tested in triplicates. The A→B (or B→A) apparent permeability coefficients (Papp) of each compound were calculated using the equation, Papp=dQ/dt×1/AC0, where dQ/dt equals the flux of a drug across the monolayer, A equals the total insert well surface area, and C0 is the initial concentration of substrate in the donor compartment. The efflux ratio was determined by dividing the Papp in the B-A direction by the Papp in the A-B direction.

The target of data set [3] is interaction between GST-MAGEA11 MHD and FAM-PCF11_4 peptide (MAGE-A11:PCF11) (Homo sapiens (Human), UniProt P43364). Nature of the data set: TR-FRET dose response competition assay for disruption of MAGE-A11:PCF11 binding. In a few lines:
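Competition TR-FRET at room temperature in 50 mM Tris pH 7.5, 20 mM MgCl2, 0.1 mg/ml BSA, 1 mM DTT: final 5 nM GST-MAGEA11 MHD, 5 nM Tb-anti-GST, 200 nM FAM-PCF11_4, 90 min. Ratio 520/490 nm converted to % inhibition; IC50 from sigmoidal fit.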

The subject of a further data set is Caco-2 cell monolayers. The data set can be described thus: High throughput Caco-2 permeability. Type of data set: in vitro ADME. The method, then:
as §1

The mark [4] stands for this setting: Caco-2, pH 7.4, apical to basolateral, read-out: Caco-2 permeability, A/B.
[5] abbreviates: Caco-2, pH 7.4, basolateral to apical, read-out: Caco-2 permeability, B/A.
Where [6] appears, read: Table 6, 4-aminoquinoline compounds, read-out: TR-FRET, IC50.
Where [7] appears, read: read-out: IC50 by TR-FRET for disrupting MAGE-A11:PCF11 interaction.
Where [8] appears, read: Table 8, representative compounds, read-out: TR-FRET IC50.

interaction between GST-MAGEA11 MHD and FAM-PCF11_4 peptide (MAGE-A11:PCF11), sequence (P43364 218-429): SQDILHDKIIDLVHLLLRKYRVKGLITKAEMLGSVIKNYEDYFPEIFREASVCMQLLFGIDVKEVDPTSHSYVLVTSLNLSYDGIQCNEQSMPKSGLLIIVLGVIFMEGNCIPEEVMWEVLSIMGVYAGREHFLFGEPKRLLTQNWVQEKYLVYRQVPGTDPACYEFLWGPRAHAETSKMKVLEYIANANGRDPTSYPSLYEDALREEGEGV

On to `FC(F)(F)c1cc(-c2ccc3c(NCCCNCc4ccco4)ccnc3c2)cc(C(F)(F)F)c1` [SJ000311270-01], for which, in data set [1], the “Solubility” value came out at 61.08 µM (≈ 30.1 µg/mL). The Papp at 2 h, 10 μmol/l in data set [2] (setting [4]) was 0.326 ×10⁻⁶ cm/s; in data set [2] (setting [5]), 0.079 ×10⁻⁶ cm/s. The IC50 in data set [3] (setting [6]) is 580 nM.
On to `CC(C)(C)c1ccc(-c2ccc3c(NCCCNCc4ccco4)ccnc3c2)cc1` [SJ000311286-01], for which, in data set [1], the “Solubility” value worked out at 56.16 µM (≈ 23.2 µg/mL). Moreover, the figures for the Papp at 2 h, 10 μmol/l in data set [2] (setting [4]) and in data set [2] (setting [5]) were 0.578 ×10⁻⁶ cm/s and 0.12 ×10⁻⁶ cm/s, respectively. For the same compound, in data set [3] (setting [7]), the IC50 was 1160 nM.
`FC(F)(F)c1ccc2c(NCCCNCc3ccc4c(c3)OCO4)ccnc2c1` [SJ000361106-02, N^1-(Benzo[d][1,3]dioxol-5-ylmethyl)-N^3-(7-(trifluoromethyl)quinolin-4-yl)propane-1,3-diamine] returned a solubility at 18 h in data set [1] of 129 µM (≈ 51.9 µg/mL). Further, the Papp at 2 h, 10 μmol/l in data set [2] (setting [4]) came to 47 ×10⁻⁶ cm/s; in data set [2] (setting [5]), 40 ×10⁻⁶ cm/s. Moreover, the IC50 in data set [3] (setting [6]) was greater than 74000 nM; in data set [3] (setting [8]) it was 69900 nM.
Compound `FC(F)(F)c1ccc2c(NCCCNCc3ccco3)ccnc2c1` [SJ000361113-02, N^1-(Furan-2-ylmethyl)-N^3-(7-(trifluoromethyl)quinolin-4-yl)propane-1,3-diamine] came in with a solubility at 18 h in data set [1] of 119 µM (≈ 41.6 µg/mL). Moreover, the Papp at 2 h, 10 μmol/l came to 50.2 ×10⁻⁶ cm/s in data set [2] (setting [4]) and 40.1 ×10⁻⁶ cm/s in data set [2] (setting [5]). The IC50 in data set [3] (setting [6]) is greater than 70000 nM.
Turning to `Clc1ccc2c(NCCCNCc3ccc4[nH]ccc4c3)ccnc2c1` [SJ000520909-03, N^1-((1H-Indol-5-yl)methyl)-N^3-(7-chloroquinolin-4-yl)propane-1,3-diamine], the concentration in solution in data set [1] (solubility at 18 h) was 59.8 µM (≈ 21.8 µg/mL). Also, the results for the Papp at 2 h, 10 μmol/l in data set [2] (setting [4]) and in data set [2] (setting [5]) were 19.6 ×10⁻⁶ cm/s and 21.3 ×10⁻⁶ cm/s, respectively. In addition, the figures for the 50% inhibitory concentration (IC50) in data set [3] (setting [6]) and in data set [3] (setting [8]) were 240 nM and 67100 nM, respectively.
As for `Brc1ccc2c(NCCCNCc3ccc4[nH]ccc4c3)ccnc2c1` [SJ001008065-01, N^1-((1H-Indol-5-yl)methyl)-N^3-(7-bromoquinolin-4-yl)propane-1,3-diamine], the solubility at 18 h in data set [1] is 57.1 µM (≈ 23.4 µg/mL). In addition, the results for the Papp at 2 h, 10 μmol/l in data set [2] (setting [4]) and in data set [2] (setting [5]) were 18.3 ×10⁻⁶ cm/s and 19.3 ×10⁻⁶ cm/s, respectively. Moreover, the IC50 in data set [3] (setting [6]) was 620 nM.
`c1ccc2c(NCCCNCc3ccc4[nH]ccc4c3)ccnc2c1` [SJ001008066-01, N^1-((1H-Indol-5-yl)methyl)-N^3-(quinolin-4-yl)propane-1,3-diamine]: the “Solubility” value in data set [1] was 37.77 µM (≈ 12.5 µg/mL). In addition, the Papp at 2 h, 10 μmol/l in data set [2] (setting [4]) is 8.17 ×10⁻⁶ cm/s; in data set [2] (setting [5]), 8.09 ×10⁻⁶ cm/s. Also, the “cell permeability” value in the data set on Caco-2 cell monolayers was “cell permeable”. For the same compound, the IC50 in data set [3] (setting [7]) was 130 nM.
Compound `Cn1ccc2cc(CNCCCNc3ccnc4cc(C(F)(F)F)ccc34)ccc21` [SJ001008067-01, N^1-((1-Methyl-1H-indol-5-yl)methyl)-N^3-(7-(trifluoromethyl)quinolin-4-yl)propane-1,3-diamine] came in with a solubility at 18 h in data set [1] of 19.4 µM (≈ 8 µg/mL). Moreover, the Papp at 2 h, 10 μmol/l is 21.4 ×10⁻⁶ cm/s in data set [2] (setting [4]) and 12.3 ×10⁻⁶ cm/s in data set [2] (setting [5]). Also, the IC50 in data set [3] (setting [6]) was found to be 1160 nM.
The corresponding values for `CC(C)(C)c1ccc(-c2ccc3c(NCCCNCc4ccc5[nH]ccc5c4)ccnc3c2)cc1` [SJ001008068-01, N^1-((1H-Indol-5-yl)methyl)-N^3-(7-(4-(tert-butyl)phenyl)quinolin-4-yl)propane-1,3-diamine] are 0.67 µM (≈ 0.31 µg/mL), 0.368 ×10⁻⁶ cm/s, 1.54 ×10⁻⁶ cm/s and 130 nM.
`FC(F)(F)c1cc(-c2ccc3c(NCCCNCc4ccc5[nH]ccc5c4)ccnc3c2)cc(C(F)(F)F)c1` [SJ001008069-01, N^1_((1H-Indol-5-yl)methyl)-N^3-(7-(3,5-bis(trifluoromethyl)phenyl)quinolin-4-yl)propane-1,3-diamine]: in data set [1], the solubility at 18 h was 0.12 µM (≈ 0.0651 µg/mL). The results for the Papp at 2 h, 10 μmol/l in data set [2] (setting [4]) and in data set [2] (setting [5]) were 0.498 ×10⁻⁶ cm/s and 0.229 ×10⁻⁶ cm/s, respectively. Also, the IC50 in data set [3] (setting [6]) stood at 200 nM.
In turn, `C=CC(=O)N(CCCNc1ccnc2ccccc12)Cc1ccc2[nH]ccc2c1` [SJ001009807-01, N-((1H-Indol-5-yl)methyl)-N-(3-(quinolin-4-ylamino)propyl)acrylamide] returned a solubility at 18 h in data set [1] of 34.8 µM (≈ 13.4 µg/mL). The Papp at 2 h, 10 μmol/l in data set [2] (setting [4]) was determined as 2.73 ×10⁻⁶ cm/s; in data set [2] (setting [5]), 18.9 ×10⁻⁶ cm/s. The IC50 in data set [3] (setting [6]) worked out at 3500 nM.

The values above are taken from US20240246941A1, “SUBSTITUTED 4-(3-AMINOPROP-1-YL)AMINOQUINOLINE ANALOGS AS MODULATORS OF MELANOMA-ASSOCIATED ANTIGEN 11 UBIQUITIN LIGASE” (ST. JUDE CHILDREN'S RESEARCH HOSPITAL, INC., priority 2020, published 2024).
